Data reported in patent publication US12600732B2, “Bifunctional compounds for degrading BTK via ubiquitin proteosome pathway” (NURIX THERAPEUTICS, INC., priority 2019, dated 2026).
Several values for one entry are separate records, joined by “and”; a condition that tells them apart may be missing. Equal entries are not always repeated.

Tests used:
[1] = Compound plasma exposure in cyno DRF study; type: in vivo; details: cynomolgus monkey, po
Ikaros = target: T1, Ikaros (Homo sapiens, UniProt Q13422+Q96SW2); experiment: Ikaros degradation in Mantle Cell Lymphoma lines (flow cytometry); type: cell-based; details: treatment time 24 h
T1 construct: endogenous in cells; host or cells: Mino, Rec-1
T1 sequence (Q13422 whole entry): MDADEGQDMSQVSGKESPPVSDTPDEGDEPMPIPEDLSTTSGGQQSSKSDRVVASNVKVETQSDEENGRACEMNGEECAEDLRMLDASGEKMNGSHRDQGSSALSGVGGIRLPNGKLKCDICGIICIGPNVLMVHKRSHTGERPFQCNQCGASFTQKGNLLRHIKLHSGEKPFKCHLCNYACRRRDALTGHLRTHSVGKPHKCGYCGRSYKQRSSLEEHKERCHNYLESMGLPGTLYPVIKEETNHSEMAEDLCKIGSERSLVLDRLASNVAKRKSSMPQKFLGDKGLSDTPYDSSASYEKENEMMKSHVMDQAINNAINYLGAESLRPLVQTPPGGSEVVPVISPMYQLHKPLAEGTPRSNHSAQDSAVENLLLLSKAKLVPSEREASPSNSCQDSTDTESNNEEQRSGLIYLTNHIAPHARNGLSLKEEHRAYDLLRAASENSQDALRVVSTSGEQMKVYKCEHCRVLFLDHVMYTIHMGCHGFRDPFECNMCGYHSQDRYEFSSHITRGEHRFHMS
T1 sequence (Q96SW2 whole entry): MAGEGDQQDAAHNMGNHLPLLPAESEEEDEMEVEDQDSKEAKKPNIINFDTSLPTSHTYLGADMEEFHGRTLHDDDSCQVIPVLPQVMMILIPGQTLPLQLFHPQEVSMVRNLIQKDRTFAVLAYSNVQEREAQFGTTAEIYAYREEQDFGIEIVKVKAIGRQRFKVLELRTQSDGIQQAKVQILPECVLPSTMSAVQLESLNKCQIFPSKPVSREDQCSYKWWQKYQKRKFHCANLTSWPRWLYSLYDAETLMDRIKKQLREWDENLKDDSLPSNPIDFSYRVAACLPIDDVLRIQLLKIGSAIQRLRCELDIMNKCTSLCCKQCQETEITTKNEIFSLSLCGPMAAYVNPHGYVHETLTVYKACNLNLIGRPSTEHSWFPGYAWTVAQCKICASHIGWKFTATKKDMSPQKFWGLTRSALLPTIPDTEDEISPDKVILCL
T1 sequence (Q16531 whole entry partner): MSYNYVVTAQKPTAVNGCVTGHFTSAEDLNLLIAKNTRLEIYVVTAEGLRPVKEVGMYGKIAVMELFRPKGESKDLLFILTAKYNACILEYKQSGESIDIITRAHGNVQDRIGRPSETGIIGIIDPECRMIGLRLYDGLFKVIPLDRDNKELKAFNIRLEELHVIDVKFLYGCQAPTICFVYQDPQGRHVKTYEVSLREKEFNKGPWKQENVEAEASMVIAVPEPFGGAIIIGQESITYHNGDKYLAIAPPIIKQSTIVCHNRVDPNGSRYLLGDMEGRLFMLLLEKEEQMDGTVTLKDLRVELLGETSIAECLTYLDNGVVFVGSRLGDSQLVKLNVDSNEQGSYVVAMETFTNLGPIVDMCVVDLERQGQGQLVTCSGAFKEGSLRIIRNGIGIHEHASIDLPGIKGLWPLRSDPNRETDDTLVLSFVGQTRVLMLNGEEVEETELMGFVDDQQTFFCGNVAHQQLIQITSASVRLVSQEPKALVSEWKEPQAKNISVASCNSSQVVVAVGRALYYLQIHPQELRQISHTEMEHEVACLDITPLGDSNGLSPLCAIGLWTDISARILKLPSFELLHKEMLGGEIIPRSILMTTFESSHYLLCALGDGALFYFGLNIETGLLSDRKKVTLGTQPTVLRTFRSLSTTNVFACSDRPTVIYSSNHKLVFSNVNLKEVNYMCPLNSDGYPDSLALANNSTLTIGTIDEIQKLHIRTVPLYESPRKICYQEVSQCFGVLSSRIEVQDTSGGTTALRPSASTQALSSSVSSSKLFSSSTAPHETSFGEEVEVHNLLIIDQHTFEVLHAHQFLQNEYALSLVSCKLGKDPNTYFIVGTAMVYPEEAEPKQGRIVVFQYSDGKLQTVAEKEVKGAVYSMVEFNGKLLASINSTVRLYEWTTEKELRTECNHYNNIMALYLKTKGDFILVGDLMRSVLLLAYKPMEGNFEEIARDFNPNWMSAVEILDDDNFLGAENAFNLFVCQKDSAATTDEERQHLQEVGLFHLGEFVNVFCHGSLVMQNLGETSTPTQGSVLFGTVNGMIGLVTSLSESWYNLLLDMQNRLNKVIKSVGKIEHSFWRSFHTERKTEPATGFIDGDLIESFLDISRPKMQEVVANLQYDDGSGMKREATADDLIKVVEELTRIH
Description: Ikaros and Aiolos Degradation in Mantle Cell Lymphoma Lines (Ikaros and Aiolos Flow Cytometry)
This example evaluates the IMiD activity of CTMs in cellular models of Mantle Cell Lymphoma (MCL). […] These assays are to determine potency of CTMs for degrading IMiD neo-substrates in cellular models of MCL and to generate data to inform efficacy studies in MCL xenografts.

CRBN neo-substrates = experiment: CRBN neo-substrate levels / IMiD activity in MOLT4 and TMD8 cells (FIGS. 10-12); type: cell-based; details: for effect on CRBN neo-substrate levels in cells: MOLT4 and TMD8 cells, FIGS. 11A and 11B
Description: FIGS. 10A and 10B provide effects of compounds 73, 72, 121, and 44, and control compounds, on neo-substrate and ITK or BTK levels after twenty-four hours in MOLT4 cells (FIG. 10A) and TMD8 cells (FIG. 10B).
FIGS. 11A and 11B provide effects of compounds 44, 72, and 149, and control compounds, on CRBN neo-substrate and ITK levels in MOLT4 cells (FIG. 11A) and TMD8 cells (FIG. 11B).
FIG. 12 provides effects of compounds 130, 149, and 44 on ITK levels and IMiD activity.

[2] = system: TMD8 BTK C481S tumor cells; experiment: TMD8 BTK C481S xenograft efficacy study; type: in vivo, mouse; details: PO
Description: […] Tumor growth inhibition (% TGI) were calculated on the final day of measurement using the equation [1−(T−T0/C−T0)]×100, where T and C represent the mean size of tumors in the treated (T) and control (C) groups, and T0 refers to the tumor size at randomization.
This example examines the activity of various BTK CTMs in relevant disease models, including the WT and C481S TMD8 model, which models B cell malignancies with/without inhibitor-driven BTK mutations at C481.

BTK [3] = target: T2, BTK (Homo sapiens, UniProt Q06187); experiment: BTK degradation (Total BTK HTRF) in Mino cells (Mantle Cell Lymphoma model); type: cell-based; design: endogenous in cells; host or cells: TMD8, Mino, Rec-1; details: treatment time 4 h
T2 sequence (Q06187 whole entry): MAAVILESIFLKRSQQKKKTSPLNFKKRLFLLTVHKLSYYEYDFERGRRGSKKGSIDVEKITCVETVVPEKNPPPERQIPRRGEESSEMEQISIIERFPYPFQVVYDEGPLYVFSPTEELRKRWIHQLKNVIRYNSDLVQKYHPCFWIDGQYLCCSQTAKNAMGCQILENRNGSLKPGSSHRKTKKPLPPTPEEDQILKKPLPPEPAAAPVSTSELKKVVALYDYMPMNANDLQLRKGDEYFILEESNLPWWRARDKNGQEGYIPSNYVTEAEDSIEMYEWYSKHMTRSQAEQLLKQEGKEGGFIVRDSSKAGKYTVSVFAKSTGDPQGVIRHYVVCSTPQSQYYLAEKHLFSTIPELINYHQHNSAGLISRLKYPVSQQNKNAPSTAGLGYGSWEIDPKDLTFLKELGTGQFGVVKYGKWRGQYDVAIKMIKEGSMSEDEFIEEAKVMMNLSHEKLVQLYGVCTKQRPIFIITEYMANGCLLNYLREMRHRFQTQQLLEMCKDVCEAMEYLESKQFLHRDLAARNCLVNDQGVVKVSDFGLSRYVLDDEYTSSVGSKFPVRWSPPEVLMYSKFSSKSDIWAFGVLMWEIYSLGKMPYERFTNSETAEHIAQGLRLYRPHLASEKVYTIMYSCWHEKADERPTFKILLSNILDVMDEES
Description: (§1) BTK levels were determined using Cisbio Total-BTK HTRF (Homologous Time-Resolved Fluorescence) kit (63ADK064PEG) according to the manufacturer's protocol. Briefly, cells were incubated in 1× supplied lysis buffer for 30 minutes. In an opaque white low volume 96-well plate (Cisbio, 66PL96005), cell lysate was combined with two different specific BTK antibodies, one conjugated with Eu^3+-Cryptate FRET donor and one conjugated with d2 FRET acceptor. Assay controls include wells containing cell lysate with only the Eu^3+-Cryptate FRET donor antibody and wells containing both HTRF antibodies and lysis buffer without cells or control lysate provided by Cisbio. HTRF ratio was calculated as (acceptor signal at 665 nm/donor signal at 620 nm)×10^4. Background HTRF levels were determined from the control well containing the donor, but no acceptor, antibody. Background HTRF levels were subtracted from all samples. Readouts were reported as HTRF levels relative to HTRF levels of DMSO-treated cells. Four-parameter non-linear regressions were performed in GraphPad Prism 7.02 to obtain DC50 values.
BTK Degradation (Total BTK HTRF) at Four Hours in Mino Cells
This example evaluates the potency of CTMs in a model of Mantle Cell Lymphoma (MCL). To evaluate potential therapeutic indications, BTK CTMs were assayed in models of Mantle Cell Lymphoma as with the TMD8 cells (ABC-DLBCL) above. Tested CTMs had similar potencies for BTK degradation in the MCL cell lines (Mino and Rec-1) and TMD8 cells.

BTK [4] = experiment: PD data from cyno (BTK degradation); type: in vivo; details: blood
Description: In this example, compounds were profiled for activity in non-mouse species.

TMD8 C481S cells = experiment: Cell viability assay (CellTiter-Glo), TMD8 C481S cells; details: for EC50: Homo sapiens, TMD8, 72 h; for EMAX (% viable cells): TMD8 C481S cells, treatment time 72 h
Description: Cell viability was determined using CellTiter-Glo 2.0 Luminescent Cell Viability Assay (Promega, G9242), which quantitates the amount of ATP present as a proxy for the number of viable cells in culture. Cells were plated with densities between 2000-4000 cells per well in 96-well plates. […] CellTiter-Glo reagent was added to cells at a dilution of 1:20, and the plate was incubated ten minutes at room temperature prior to reading the luminescence signal using an EnVision plate reader. Controls included cells treated with DMSO and wells that contained no cells, only media. Background luminescence signal was determined by control wells containing no cells, only media, and was then subtracted from all sample wells. Luminescence values were then normalized to DMSO-treated wells and reported at proportion viable cells.

BTK [5] = target: T2, BTK; experiment: Cellular BTK degradation assay (Total BTK HTRF) in TMD8 cells; type: cell-based; design: endogenous in cells; host or cells: TMD8; details: treatment time 24 h
Description: Cellular BTK Degradation Assay
In Vitro Cellular Screening to Determine Potency as Measured by DC50 Values after Four Hour Incubation
as §1
Cellular BTK degradation was measured as above for four hours in TMD8 cells for two diastereomers of compound 130. DC50 and EC50 values are the concentration at which the response is halfway between the top and bottom of the fitted non-linear regression curve.
The present example evaluates whether potency of BTK CTMs shifts with longer timepoints. DC50 values are typically calculated with a 4-hour timepoint.

[6] = Compound plasma exposure in mouse (CD-1), daily oral dosing, same table as the cyno DRF study; type: in vivo; details: CD-1, mouse
[7] = 10 mg/kg, 10 mg/kg PO, 1 day of dosing
[8] = 30 mg/kg, 30 mg/kg PO, 1 day of dosing
[9] = 100 mg/kg, 100 mg/kg PO, 1 day of dosing
[10] = 100 mg/kg, 100 mg/kg PO, 14 days of dosing
[11] = 30 mg/kg, QD, 23 days of dosing
[12] = 30 mg/kg, 30 mg/kg PO, 14 days of dosing
[13] = 300 mg/kg, 300 mg/kg PO, 1 day of dosing
[14] = 300 mg/kg, 300 mg/kg PO, 14 days of dosing

Structure (SMILES): NC(=O)c1ncc(N2CCCCC2)nc1Nc1ccc(C2CCN(C[C@@H]3CCN(c4ccc5c(c4)C(=O)N(C4CCC(=O)NC4=O)C5=O)C3)CC2)cc1 (stereo partly drawn) [Compound 149]
- AUC [1, 7]: 0.386 µM·h
- AUC [1, 8]: 0.72 µM·h
- Cmax [1, 9]: 76 nM
- AUC [1, 10]: 2.66 µM·h
- DC50 (Ikaros; Mino cells): 0.13 µM
- DC50 (Ikaros; Rec-1 cells): 0.061 µM
- effect on CRBN neo-substrate levels in cells (CRBN neo-substrates): some effect
- Tumor Growth Inhibition (relative to vehicle) ([2]; 10 mg/kg, QD, 23 days of dosing): 27%
- Tumor Growth Inhibition (relative to vehicle) ([2]; 10 mg/kg, QD, 24 days of dosing): 17%
- Tumor Growth Inhibition (relative to vehicle) [2, 11]: 29%
- Tumor Growth Inhibition (relative to vehicle) ([2]; 30 mg/kg, QD, 24 days of dosing): 43%
- Tumor Growth Inhibition (relative to vehicle) ([2]; 90 mg/kg, QD, 24 days of dosing): 59%
- DC50 (BTK [3]): 0.0059 µM
- % BTK Remaining (BTK [4]; 1 mg/kg IV, 2 h): 24%
- % BTK Remaining (BTK [4]; 1 mg/kg IV, 4 h): 9%
- % BTK Remaining (BTK [4]; 1 mg/kg IV, 8 h): 4%
- % BTK Remaining (BTK [4]; 1 mg/kg IV, 24 h): 7%
- % BTK Remaining (BTK [4]; 10 mg/kg PO, 2 h): 81%
- % BTK Remaining (BTK [4]; 10 mg/kg PO, 4 h): 39%
- % BTK Remaining (BTK [4]; 10 mg/kg PO, 8 h): 17%
- % BTK Remaining (BTK [4]; 10 mg/kg PO, 24 h): 12%
- % BTK Remaining (BTK [4]; 30 mg/kg PO, 2 h): 89%
- % BTK Remaining (BTK [4]; 30 mg/kg PO, 4 h): 51%
- % BTK Remaining (BTK [4]; 30 mg/kg PO, 8 h): 26%
- % BTK Remaining (BTK [4]; 30 mg/kg PO, 24 h): 19%
- % BTK Remaining (BTK [4]; 100 mg/kg PO, 2 h): 97%
- % BTK Remaining (BTK [4]; 100 mg/kg PO, 4 h): 56%
- % BTK Remaining (BTK [4]; 100 mg/kg PO, 8 h): 20%
- % BTK Remaining (BTK [4]; 100 mg/kg PO, 24 h): 12%
- EC50 (TMD8 C481S cells): 0.0372 µM
- EMAX (% viable cells) (TMD8 C481S cells): 18%
- DC50 (BTK [5]): 0.0023 µM
- AUC [6, 8]: 12.2 µM·h
- Cmax [6, 8]: 940 nM
- AUC [6, 12]: 22.8 µM·h
- Cmax [6, 12]: 1640 nM
- AUC [6, 9]: 27.7 µM·h
- Cmax [6, 9]: 2050 nM
- AUC [6, 10]: 33.4 µM·h
- Cmax [6, 10]: 2410 nM
- AUC [6, 13]: 38.6 µM·h
- Cmax [6, 13]: 2610 nM
- AUC [6, 14]: 64.2 µM·h
- Cmax [6, 14]: 4100 nM

Structure (SMILES): CN1CCN([C@@H]2CCCN(c3cnc(C(N)=O)c(Nc4ccc(C5CCN(C[C@H]6CCN(c7ccc8c(c7)C(=O)N(C7CCC(=O)NC7=O)C8=O)C6)CC5)cc4)n3)C2)C1=O (stereo partly drawn) [Compound 44]
- AUC [1, 7]: 0.148 µM·h
- AUC [1, 8]: 0.268 µM·h
- Cmax [1, 9]: 22.6 nM
- AUC [1, 10]: 1.52 µM·h
- DC50 (Ikaros; Mino cells): 1.4 µM
- DC50 (Ikaros; Rec-1 cells): 0.072 µM
- effect on CRBN neo-substrate levels in cells (CRBN neo-substrates): some effect
- effects on CRBN neo-substrate levels (CRBN neo-substrates; after twenty-four hours, TMD8 and/or MOLT4 cells, FIGS. 10A and 10B): some effects
- Tumor Growth Inhibition (relative to vehicle) ([2]; 5 mg/kg, BID, 23 days of dosing): 65%
- Tumor Growth Inhibition (relative to vehicle) ([2]; 15 mg/kg, BID, 23 days of dosing): 62%
- Tumor Growth Inhibition (relative to vehicle) ([2]; 30 mg/kg, BID, 23 days of dosing): 70% and 78%
- Tumor Growth Inhibition (relative to vehicle) [2, 11]: 48% and 51% and 36%
- Tumor Growth Inhibition (relative to vehicle) ([2]; 60 mg/kg, QD, 23 days of dosing): 70%
- DC50 (BTK [3]): 0.00056 µM
- % BTK Remaining (BTK [4]; 1 mg/kg IV, 2 h): 6%
- % BTK Remaining (BTK [4]; 1 mg/kg IV, 4 h): 6%
- % BTK Remaining (BTK [4]; 1 mg/kg IV, 8 h): 7%
- % BTK Remaining (BTK [4]; 1 mg/kg IV, 24 h): 9%
- % BTK Remaining (BTK [4]; 1 mg/kg PO, 2 h): 85%
- % BTK Remaining (BTK [4]; 1 mg/kg PO, 4 h): 65%
- % BTK Remaining (BTK [4]; 1 mg/kg PO, 8 h): 52%
- % BTK Remaining (BTK [4]; 1 mg/kg PO, 24 h): 40%
- % BTK Remaining (BTK [4]; 10 mg/kg PO, 2 h, 10 mg/kg): 59% and 82%
- % BTK Remaining (BTK [4]; 10 mg/kg PO, 4 h, 10 mg/kg): 35% and 42%
- % BTK Remaining (BTK [4]; 10 mg/kg PO, 8 h, 10 mg/kg): 22% and 27%
- % BTK Remaining (BTK [4]; 10 mg/kg PO, 24 h, 10 mg/kg): 15% and 29%
- % BTK Remaining (BTK [4]; 30 mg/kg PO, 2 h): 83%
- % BTK Remaining (BTK [4]; 30 mg/kg PO, 4 h): 47%
- % BTK Remaining (BTK [4]; 30 mg/kg PO, 8 h): 22%
- % BTK Remaining (BTK [4]; 30 mg/kg PO, 24 h): 17%
- % BTK Remaining (BTK [4]; 100 mg/kg PO, 2 h): 48%
- % BTK Remaining (BTK [4]; 100 mg/kg PO, 4 h): 27%
- % BTK Remaining (BTK [4]; 100 mg/kg PO, 8 h): 12%
- % BTK Remaining (BTK [4]; 100 mg/kg PO, 24 h): 8%
- EC50 (TMD8 C481S cells): 0.0081 µM
- EMAX (% viable cells) (TMD8 C481S cells): 25%
- DC50 (BTK [5]): 0.00036 µM
- AUC [6, 8]: 2.32 µM·h
- Cmax [6, 8]: 230 nM
- AUC [6, 12]: 2.22 µM·h
- Cmax [6, 12]: 250 nM
- AUC [6, 9]: 4.15 µM·h
- Cmax [6, 9]: 400 nM
- AUC [6, 10]: 8.07 µM·h
- Cmax [6, 10]: 590 nM
- AUC [6, 13]: 9.53 µM·h
- Cmax [6, 13]: 740 nM
- AUC [6, 14]: 12.8 µM·h
- Cmax [6, 14]: 940 nM
